Literature values in patent US20070231316A1, “Treatment of Cognitive Dysfunction in Lupus” (priority 2003, published 2007).

Key:
[1] = in vivo
[2] = NP-SLE patients, after treatment

Molecule	effect on blood-brain barrier [1]	GFAP level in CSF [2]	NFL level in CSF [2]
lipopolysaccharide [LPS]	temporary opening of the blood-brain barrier		
O=P1(N(CCCl)CCCl)NCCCO1 (stereo not drawn) [cyclophosphamide]		marked decline	marked decline
